Results taken from patent US20240316146A1, “METHODS OF REDUCING NEUROPATHY AND NEUROPATHIC SYMPTOMS AND TREATING CANCER” (Bexion Pharmaceuticals Inc., priority 2021, published 2024).
Values joined by “and” are separate entries in the source; they are usually repeats but may differ in a detail not shown here. Equal values may be shown once.

Tests used:
[1] = tested on: mouse oxaliplatin model of chemotherapy-induced neuropathy; assay: Thermal hypersensitivity, cold plate test 15° C., Study 1; type: in vivo
Protocol: (§1) 60 adult male C57/BL6 mice (Charles River), 6-7 weeks of age, were housed in groups of 5 in Perspex cages, in a controlled environment of constant temperature and humidity (temperature: 21±1° C., light: dark cycle of 12:12 hours), with food and water available ad libitum. Animals were allowed to recover from transportation for at least one week before commencing experiments.
(§2) Thermal hypersensitivity: Thermal hypersensitivity was assessed using a dynamic cold plate (Bioseb, France) set at a fixed temperature of 15° C. This method allows analysis of more integrated behaviors rather than reflex behaviors, e.g., the tail immersion test. In animal studies, thermal sensitivity is mostly evaluated based on nociceptive reaction latencies in response to a given thermal aversive stimulus. In this classical test, the temperature of the plate is fixed and remains constant: the latency to the first paw licking, jumps or withdrawal is taken as an index of nociceptive threshold. […] The results of the study are shown in Table 5 (raw data) below, Table 6 (summary) below, FIG. 4, and FIG. 5.
(§3) Warm vials of BQX-350 were brought to room temperature and reconstituted with 4 mL water for injection via syringe. The vials were gently agitated and/or vortexed for 15-20 sec and allowed to sit at room temp for 5 mins. The rehydrated solution contained 2.2 mg/mL SapC (8.8 mg SapC per vial). About […] of the formulation was injected to achieve a target dose of 20 mg/kg in each mouse. Pregabalin was reconstituted in water and injected to achieve a target dose of 30 mg/kg in each mouse.
(§4) A two-way repeated measures ANOVA with ‘treatment’ as a between subjects effect, and ‘day’ as a within subjects effect was used (using GraphPad Prism version 9.0 for Windows, GraphPad Software, San Diego California USA), followed by Dunnett's multi comparisons test. Data is presented as mean±SEM.

[2] = tested on: mouse oxaliplatin model of chemotherapy-induced neuropathy; assay: Static mechanical (tactile) allodynia, von Frey filaments, Study 2; type: in vivo; settings: for PWT 50% (left hind paw Paw Withdrawal Threshold 50%): Group E Oxaliplatin/Pregabalin 30 mg/kg (days 3, 5, 7, 9), N 12; for Individual Paw Withdrawal Threshold 50% (von Frey filaments): Study 2, oxaliplatin 10 mg/kg IP day 0 (+vehicle, BXQ-350 2 mg/kg IP or pregabalin 30 mg/kg IP), individual mice
Protocol: (§5) Static mechanical tactile allodynia: Static mechanical (tactile) allodynia was assessed by measurement of withdrawal threshold using calibrated (force; g) von-Frey monofilaments (Touch-Test Sensory Evaluator; Scientific Marketing Associates) applied to the plantar surface of the left hind-paw. The animals were placed in individual Perspex boxes on a raised metal mesh for 30-40 min before the test to habituate. A series of graduated von Frey hairs (0.07, 0.16, 0.4, 0.6 and 1 g) were applied in sequence with a protocol of 1 sec on 1 sec off repeated 10 times. Each hair was applied perpendicularly to the center of the ventral surface of the paw until it bent slightly. The force applied to the hind-paw of the animal to induce 5 responses out of 10 trials was recorded as paw withdrawal threshold (PWT) 50%.
as §1
Static mechanical tactile allodynia: The same apparatus and protocol were used as for Study 1.

[3] = tested on: mouse oxaliplatin model of chemotherapy-induced neuropathy; assay: Static mechanical (tactile) allodynia, von Frey filaments, Study 1; type: in vivo
Protocol: as §1, §5, §3, §4

[4] = tested on: mouse oxaliplatin model of chemotherapy-induced neuropathy; assay: Thermal hypersensitivity, cold plate test, Study 2; settings: Group E Oxaliplatin/Pregabalin 30 mg/kg (days 3, 5, 7, 9), N 12
Protocol: as §2, §1
Thermal hypersensitivity: The same apparatus and protocol were used as for Study 1. The results of Study 2 are shown in Table 11 (raw data), Table 12 (summary), FIG. 8, and FIG. 9.

Body weights, Study 2 = type: in vivo, mouse; settings: Group E Oxaliplatin/Pregabalin, individual mice
Source text: Body Weights: The mice were weighed daily starting 1 day prior to treatment through day 9.

[5] = tested on: A549 tumor spheroids with PBMCs; assay: 3D-tumor spheroid T-cell killing model (Incucyte); type: cell-based, human; settings: BXQ-350 1.3 nM to 2.8 μM or Pembrolizumab 50 μg/ml; PBMCs with activation cocktail; day 6
Protocol: A549 human lung cancer cells, transfected with a lentivirus, were seeded in 96-wells ultra-low attachment plates at a concentration of 750 cells/well. The plates were then centrifuged at 1200 rpm for 2 min, to promote agglomeration of the cells and formation of spheroids. The plates then were incubated for three days at 37° C. After three days, freshly isolated human peripheral blood mononuclear cells (PBMCs) were added to the spheroids at a concentration of 10,000 PBMCs/well. To various wells were added one or more of: an activation cocktail containing an anti-CD3 antibody at a final concentration of 1 ng/ml and IL-12 at a final concentration of 10 ng/ml; BXQ-350 in serial dilutions from 25 μM to 1.27 nM; a positive control of Pembrolizumab at 50 μg/ml. A negative control group had no additions to the spheroids and PBMCs. The final volume of each well was then adjusted to 200 μL per well.
Plates were then left to incubate for an additional 30 minutes before being placed in the Incucyte® live cells analyzer; fluorescence was analyzed every 4 hours for 6 days. Images were then analyzed using the Incucyte® software to determine the IC50. Increased fluorescence intensity in A549 tumor cell spheroids correlates to an increased number of live Luc-A549 cells in the spheroids, and a lack of fluorescence denotes cell death.

[6] = cold plate 15° C., oxaliplatin 10 mg/kg IP day 0 (+vehicle, BXQ-350 20 mg/kg IP or pregabalin 30 mg/kg IP), group mean
[7] = oxaliplatin 10 mg/kg IP day 0 (+vehicle, BXQ-350 20 mg/kg IP or pregabalin 30 mg/kg IP), Baseline, individual mice
[8] = oxaliplatin 10 mg/kg IP day 0 (+vehicle, BXQ-350 20 mg/kg IP or pregabalin 30 mg/kg IP), Day 3, individual mice
[9] = oxaliplatin treated animals, day 3 to day 9, BXQ-350 20 mg/kg, pregabalin 30 mg/kg 2 hours before assessment
[10] = oxaliplatin 10 mg/kg IP day 0 (+vehicle, BXQ-350 20 mg/kg IP or pregabalin 30 mg/kg IP), group mean

CC(C)C[C@H](CN)CC(=O)O [Pregabalin]
Latency (s) Baseline [1, 6]: 53.629 s | Latency (s) D 3 [1, 6]: 49.400 s | Latency (s) D 5 [1, 6]: 50.000 s | Latency (s) D 7 [1, 6]: 47.183 s | Latency (s) D 9 [1, 6]: 59.300 s | Individual latency to displaying withdrawal behaviour in the cold plate test [1, 7]: 52.9 s and 74.9 s and 74.7 s and 57.3 s and 48.6 s and 40.2 s and 57.5 s and 67.5 s and 38.5 s and 44.8 s and 41.3 s and 45.6 s | Individual latency to displaying withdrawal behaviour in the cold plate test [1, 8]: 56.7 s and 52.4 s and 44.4 s and 62.3 s and 57.6 s and 46.9 s and 63.6 s and 40.8 s and 58.2 s and 36.5 s and 52.5 s and 20.9 s | Individual latency to displaying withdrawal behaviour in the cold plate test ([1]; oxaliplatin 10 mg/kg IP day 0 (+vehicle, BXQ-350 20 mg/kg IP or pregabalin 30 mg/kg IP), Day 5, individual mice): 22.2 s and 43.5 s and 91.7 s and 73.6 s and 41.5 s and 39.3 s and 61.3 s and 40.1 s and 30.1 s and 42.7 s and 45.2 s and 68.8 s | Individual latency to displaying withdrawal behaviour in the cold plate test ([1]; oxaliplatin 10 mg/kg IP day 0 (+vehicle, BXQ-350 20 mg/kg IP or pregabalin 30 mg/kg IP), Day 7, individual mice): 60.2 s and 40.3 s and 72.5 s and 98.2 s and 55.5 s and 29.3 s and 32.1 s and 35.2 s and 35.8 s and 32.5 s and 31.4 s and 43.2 s | Individual latency to displaying withdrawal behaviour in the cold plate test ([1]; oxaliplatin 10 mg/kg IP day 0 (+vehicle, BXQ-350 20 mg/kg IP or pregabalin 30 mg/kg IP), Day 9, individual mice): 37.8 s and 71.7 s and 75.8 s and 54.0 s and 72.7 s and 34.6 s and 84.7 s and 71.5 s and 74.9 s and 42.7 s and 38.9 s and 52.3 s | thermal (cold) sensitivity, cold plate test (in words) [1, 9]: reduced thermal sensitivity | PWT 50% (left hind paw Paw Withdrawal Threshold 50%) ([2]; D3, mean (SEM)): ****0.933 g | PWT 50% (left hind paw Paw Withdrawal Threshold 50%) ([2]; D5, mean (SEM)): ****0.833 g | PWT 50% (left hind paw Paw Withdrawal Threshold 50%) ([2]; D7, mean (SEM)): ****0.817 g | PWT 50% (left hind paw Paw Withdrawal Threshold 50%) ([2]; D9, mean (SEM)): ****0.967 g | PWT 50% (left hind paw Paw Withdrawal Threshold 50%) ([2]; D −1, mean (SEM)): 0.697 g | PWT 50% (left hind paw Paw Withdrawal Threshold 50%) ([2]; D −2, mean (SEM)): 0.600 g | PWT 50% (left hind paw Paw Withdrawal Threshold 50%) ([2]; D −3, mean (SEM)): 0.633 g | Individual Paw Withdrawal Threshold 50% (von Frey filaments) ([2]; D 3): 1.0 g (10×) and 0.6 g (2×) | Individual Paw Withdrawal Threshold 50% (von Frey filaments) ([2]; D 5): 1.0 g (7×) and 0.6 g (5×) | Individual Paw Withdrawal Threshold 50% (von Frey filaments) ([2]; D 7): 1.0 g (7×) and 0.6 g (4×) and 0.4 g | Individual Paw Withdrawal Threshold 50% (von Frey filaments) ([2]; D 9): 1.0 g (11×) and 0.6 g | Individual Paw Withdrawal Threshold 50% (von Frey filaments) ([2]; D −1): 1.0 g (5×) and 0.6 g (4×) and 0.4 g (2×) and 0.2 g | Individual Paw Withdrawal Threshold 50% (von Frey filaments) ([2]; D −2): 0.4 g (2×) and 0.6 g (9×) and 1.0 g | Individual Paw Withdrawal Threshold 50% (von Frey filaments) ([2]; D −3): 0.6 g (8×) and 1.0 g (2×) and 0.4 g (2×) | Individual Paw Withdrawal Threshold 50% (von Frey filaments) [3, 7]: 0.8 g (4×) and 0.6 g (2×) and 1.0 g (2×) and 0.4 g (2×) and 0.7 g and 0.5 g | Individual Paw Withdrawal Threshold 50% (von Frey filaments) [3, 8]: 1.0 g (3×) and 0.6 g | PWT 50% (g) Baseline [3, 10]: 0.698 g | PWT 50% (g) D3 [3, 10]: *0.733 g | PWT 50% (g) D5 [3, 10]: ***0.800 g | PWT 50% (g) D7 [3, 10]: **0.733 g | PWT 50% (g) D9 [3, 10]: ****0.883 g | mechanical allodynia (in words) [3, 9]: reduced mechanical allodynia | Latency to withdrawal behaviour in the cold plate test (15° C.) ([4]; D3, mean (SEM)): ***77.083 + s | Latency to withdrawal behaviour in the cold plate test (15° C.) ([4]; D5, mean (SEM)): 31.188 + s | Latency to withdrawal behaviour in the cold plate test (15° C.) ([4]; D7, mean (SEM)): *42.792 + s | Latency to withdrawal behaviour in the cold plate test (15° C.) ([4]; D9, mean (SEM)): 42.063 + s | Latency to withdrawal behaviour in the cold plate test (15° C.) ([4]; D −1, mean (SEM)): 43.175 + s | Latency to withdrawal behaviour in the cold plate test (15° C.) ([4]; D −2, mean (SEM)): 44.725 + s | Latency to withdrawal behaviour in the cold plate test (15° C.) ([4]; D −3, mean (SEM)): 43.908 + s | Individual body weights (Body weights, Study 2; D 0): 21.9 g and 23.6 g (2×) and 28.1 g and 23.7 g and 25.7 g (2×) and 24.9 g and 21.8 g and 26.2 g and 23.4 g and 25.1 g | Individual body weights (Body weights, Study 2; D 1): 21.6 g and 23.0 g and 26.8 g and 22.7 g and 25.2 g and 25.1 g and 23.1 g and 24.5 g and 23.6 g and 24.8 g and 22.6 g and 24.4 g | Individual body weights (Body weights, Study 2; D 2): 21.8 g and 23.1 g and 27.0 g and 22.7 g and 25.1 g and 25.4 g and 23.8 g and 23.6 g and 23.4 g and 25.0 g and 22.8 g and 24.3 g | Individual body weights (Body weights, Study 2; D 3): 21.8 g and 23.0 g and 26.6 g and 22.6 g and 24.7 g and 25.5 g and 23.4 g and 22.4 g and 22.9 g and 24.8 g and 22.8 g and 24.0 g | Individual body weights (Body weights, Study 2; D 4): 21.8 g and 23.0 g and 27.0 g and 22.3 g and 25.0 g and 24.8 g and 23.4 g and 23.5 g and 23.7 g and 24.9 g and 23.1 g and 24.0 g | Individual body weights (Body weights, Study 2; D 5): 21.4 g and 24.0 g and 27.6 g and 22.9 g | Individual body weights (Body weights, Study 2; D −1): 21.9 g and 23.7 g and 27.9 g and 23.2 g (2×) and 23.4 g and 25.3 g and 23.3 g and 24.5 g and 24.2 g and 25.7 g and 24.8 g | Individual body weights (Body weights, Study 2; D −2): 21.9 g and 23.1 g and 27.6 g and 22.7 g and 25.6 g and 25.9 g and 23.3 g and 24.6 g and 23.8 g and 25.4 g and 22.8 g and 24.4 g | Individual body weights (Body weights, Study 2; D −3): 22.0 g and 23.0 g (4×) and 28.0 g and 26.0 g (3×) and 25.0 g (2×) and 24.0 g

Pembrolizumab: positive control at 50 μg/ml in the spheroid model
cell death of spheroids (in words) [5]: increased cell death by day 6
